Laboratory results reported in patent US6641840B2, “Sustained release formulations for growth hormone secretagogues” (Pfizer Inc., priority 2000, dated 2003).
“And” between values parts separate entries of the source, which are not always exact repeats. Equal values may be shown once.

Experiments:
[1] = system: growth hormone; assay: Simulated sustained release study (bolus vs divided oral solution): serum growth hormone; format: in vivo, human; settings: for GH Tmax: individual subjects 1-4
Procedure: (§1) This dosing regimen simulates active compound delivery by a sustained release dosage form. […] Serum concentrations of growth hormone were monitored just prior to administration of the first dose and every 20 minutes thereafter for 24 hours. Serum […] growth factor-I (IGF-I) concentrations were measured at 0, 12, and 24 hours post-first dose.
(§2) The order of treatment was defined by a randomization schedule. Following initial administration, subjects were readmitted to the clinical research facility approximately 14 days later. During the second evaluation, the subject received the treatment not used during the previous session.
Growth hormone serum concentrations were determined following administration of the bolus or divided doses. Blood samples, adequate to provide 0.5 ml of serum, were collected just prior to administration of the first dose, and every 20 minutes thereafter for 24 hours for determination of growth hormone. Specimens were collected in tubes containing no additives, and were maintained at room temperature until clotted. The serum was separated from the whole blood and frozen at −20° C. within one hour of collection.
Growth hormone quantitation of the human serum samples was conducted using luminescence measurements by means of an Immulite® system (Diagnostic Products Corporation, Los Angeles, Calif.). All analyses were performed using a hGH Immulite® kit containing hGH test units (LGH 1), hGH reagent wedge (LGH 2) and hGH adjustors (LGHL and LGHH). These kits were obtained from DPC (Diagnostic Products Corporation, Los Angeles, Calif.). In addition, hGH sample diluent (LGHZ), chemiluminescent substrate module (LSUBX), probe wash module (LPWSZ) and the necessary Immulite® accessories were obtained from DPC. For each new kit, the Immulite® system was calibrated by running two adjuster samples (LGHL and LGHH) obtained from the manufacturer, containing a […] concentration of hGH in equine serum, respectively. […] The resulting luminescence was determined by means of an Immulite® system.

[2] = system: IGF-I; assay: Simulated sustained release study (bolus vs divided oral solution): serum IGF-I; format: in vivo, human; settings: simulated sustained release dosing compared to bolus
Procedure: as §1, §2
IGF-I serum concentrations were determined following administration of the bolus or divided doses. […]
IGF-I quantitation of the human serum samples was conducted using the “DSL-5600A Active™ IGF-I Coated-Tube IRMA (immunoradiometric assay) by Extraction” Kit (Diagnostic Systems Laboratories Inc., Webster, Tex.). […] Lyophilized calibration and validation samples were prepared by the addition of 1 mL of water to the ready-to-use samples. […] This neutralized human serum extract was ready for use in the actual IRMA after having vortexed it briefly. […] The remaining [^125I]radioactivity of all tubes was determined by counting for five minutes using a Canberra-Packard Cobra II™ 5002 ã-counter (Canberra-Packard, Schwadorf, Austria).

[3] = Solubility and osmotic pressure of the active compound (statement); format: physicochemical
[4] = Clinical study: body composition (total adipose and total lean tissue); format: in vivo, human
Procedure: (All dosage forms in this part of the study were immediate release dosage forms.)
In addition, an extension study was conducted to evaluate the relationship between peak GH concentrations or IGF-I versus surrogate responses such as lipid concentrations and body composition. A sustained release (SR) formulation was also evaluated, either alone or combined with an immediate release (IR) formulation (24-30 patients per group). [16 mg (10 SR, 6 IR) h.s. (h.s. means at bedtime); 16 mg (10 SR, 6 IR) h.s. every third day; 16 mg SR h.s.; and placebo.] The formulations are set forth below.
The primary efficacy endpoint was the percentage change from baseline in IGF-1. Secondary outcomes included insulin-like growth factor binding protein 3 (IGFBP-3), cholesterol subfractions, and percent changes in total adipose and total lean tissue. Changes in each of the secondary efficacy measures over time were examined systematically either graphically or in tabular form and summarized using appropriate descriptive statistics as is well known in the art.

[5] = first leg, immediate release dosing

Question: For `CN1N=C2CCN(C(=O)[C@@H](COCc3ccccc3)NC(=O)C(C)(C)N)C[C@@]2(Cc2ccccc2)C1=O.O=C(O)C(O)C(O)C(=O)O` [Compound A], which GH Tmax ([1]; 10 mg bolus, L-tartrate) is on record?
Answer: 1 h (3×) and 0.67 h

Question: What about the “GH Tmax” value ([1]; 10 mg divided, in h) of the same compound?
Answer: 1

Question: And the “frequency and amplitude of secondary GH peaks” value ([1]; simulated sustained release of 10 mg compared to bolus)?
Answer: increased

Question: What about the “IGF-I serum concentration change from baseline at 24 hours” value [2] of the same compound?
Answer: increased

Question: What about the osmotic pressure [3] of the same compound?
Answer: about 4 atmospheres

Question: And the solubility ([3]; water)?
Answer: > 150 mg/mL

Question: And the “increases in lean tissue” value ([4]; extension study, two groups receiving IR formulation)?
Answer: 0.5-0.6%

Question: What about the “adipose tissue (body composition)” value [4, 5] of the same compound?
Answer: decreased

Question: And the “apparent whole body lean mass” value [4, 5]?
Answer: increased
